In US11167007B2, “FOXM1 modulators and uses thereof” (City of Hope, priority 2016, dated 2021):

Target: T1, FOXM1/β-catenin (Mus musculus, UniProt O08696)
T1 construct: endogenous in cells; host or cells: GT1-7
T1 sequence (O08696 1-760): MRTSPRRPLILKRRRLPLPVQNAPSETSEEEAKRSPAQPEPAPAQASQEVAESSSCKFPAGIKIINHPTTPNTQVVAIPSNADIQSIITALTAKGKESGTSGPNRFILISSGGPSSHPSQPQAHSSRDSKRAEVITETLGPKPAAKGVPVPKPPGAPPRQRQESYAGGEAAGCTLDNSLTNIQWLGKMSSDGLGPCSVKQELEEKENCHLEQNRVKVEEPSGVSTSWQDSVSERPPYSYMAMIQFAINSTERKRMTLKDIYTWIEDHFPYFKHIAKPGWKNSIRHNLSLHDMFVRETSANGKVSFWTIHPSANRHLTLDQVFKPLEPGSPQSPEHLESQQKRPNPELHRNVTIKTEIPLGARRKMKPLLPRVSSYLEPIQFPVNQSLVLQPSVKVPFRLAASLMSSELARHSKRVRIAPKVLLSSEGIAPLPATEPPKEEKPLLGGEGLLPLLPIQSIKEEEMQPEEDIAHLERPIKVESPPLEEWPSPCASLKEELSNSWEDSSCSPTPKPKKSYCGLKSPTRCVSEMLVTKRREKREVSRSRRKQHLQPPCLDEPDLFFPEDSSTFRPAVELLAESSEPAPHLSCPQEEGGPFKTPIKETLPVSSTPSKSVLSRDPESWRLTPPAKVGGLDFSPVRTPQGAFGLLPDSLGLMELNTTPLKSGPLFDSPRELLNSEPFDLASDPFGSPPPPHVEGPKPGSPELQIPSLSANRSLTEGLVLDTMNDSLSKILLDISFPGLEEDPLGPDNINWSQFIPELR
Test: Co-immunoprecipitation of β-catenin from GT1-7 cell lysates, Western blot for FOXM1
Assay type: cell-based, murine
Settings: FIG. 3E
Description: Immunoprecipitation (IP). The co-IP assay was performed as described by Zhang et al, Cancer Cell, 20(4):427-42 (2011). In brief, cells were lysed on ice for 20 minutes in co-IP buffer containing 10 mmol/L Hepes (pH8), 300 mmol/L NaCL, 0.1 mmol/L EDTA, 20% glycerol, 0.2% NP-40 and protease inhibitor (Roche Diagnostics). Lysate was centrifuged at 10000 g for 10 minutes at 4° C. Lysate was incubated with primary antibody (β-catenin: rabbit, 9562, Cell Signaling Technology) overnight at 4° C. followed by incubation with 30 uL of Protein A/G beads for 2 hours at 4° C. Collected protein complexes were washed and analyzed by Western blotting.
Western Blot. Cell lysates was separated on a 6% SDS page gel and transferred to a nitrocellulose membrane. The membrane was blocked for one hour in 5% skim milk dissolved in TBS-T and probed with the following antibodies ([…]): FoxM1 (rabbit, GeneTex), AR: 441 (mouse, Santa Cruz Biotechnology), β-catenin (rabbit 9562, Cell Signaling Technology), p84 (mouse, GeneTex) and actin (mouse, Santa Cruz Biotechnology). Horse radish peroxidase linked secondary antibodies were used along with ECL reagents for visualization. Western blots were quantified using Quantity One analysis software (BioRad).
Co-immunoprecipitation confirmed a direct interaction between β-catenin and FOXM1 as well as between β-catenin and AR (FIG. 3E). […]

SMILES: C=C(NC(=O)C(=C)NC(=O)c1csc(C2=N[C@@H]3c4csc(n4)[C@H]4NC(=O)c5csc(n5)[C@H]([C@](C)(O)[C@@H](C)O)NC(=O)[C@H]5CSC(=N5)/C(=C/C)NC(=O)[C@H]([C@@H](C)O)NC(=O)c5csc(n5)[C@]3(CC2)NC(=O)[C@H](C)NC(=O)C(=C)NC(=O)[C@H](C)NC(=O)[C@H]([C@@H](C)CC)N[C@@H]2C=Cc3c([C@H](C)O)cc(nc3[C@H]2O)C(=O)O[C@@H]4C)n1)C(N)=O [thiostrepton]
- amount of FOXM1 pulled down with β-catenin: reduced
